Results: the supplement of paper PMC10307832

compound: COc1cc2nc(N3CCCN(C)CC3)nc(NC3CCN(Cc4ccccc4)CC3)c2cc1OC + CC1(C)CCC(c2ccc(Cl)cc2)=C(CN2CCN(c3ccc(C(=O)NS(=O)(=O)c4ccc(N[C@H](CCN5CCOCC5)CSc5ccccc5)c(S(=O)(=O)C(F)(F)F)c4)cc3)CC2)C1 [Navitoclax] (partner 0.5 µM); assay: relative viability (nuclei count vs DMSO), 5 days (fraction); higher = more cells survive; settings: first compound 0.2 µM
Summary of the method: (§1)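 A single step with final 0.05% Triton X-100, 1% formaldehyde and 1 ug/ml Hoechst fixed the cells and stained nuclei 5 days after treatment. Lung cancer cell lines in 1536-well plates had been treated by pin tool the day after seeding with one drug alone or a fixed anchor-drug dose plus five library-drug doses (not always all listed) in √10 steps, and nuclei were counted on 4× images. Relative viability is the ratio of nuclei in treated wells to nuclei in vehicle wells, taken as the median of duplicate plates.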

| Cell Line | relative viability |
| --- | --- |
| EKVX | 0.826 |
| LC-2-ad | 0.363 |
| NCI-H1944 | 1.1 |
| NCI-H1975 | 1.2 |
| RERF-LC-KJ | 0.94 |
| PC-3 [JPC-3] | 0.89 |

same assay, conditions: first compound 0.6325 µM

| Cell Line | relative viability |
| --- | --- |
| EKVX | 0.926 |
| LC-2-ad | 0.447 |
| NCI-H1944 | 1.02 |
| NCI-H1975 | 1.18 |
| RERF-LC-KJ | 0.884 |
| PC-3 [JPC-3] | 0.815 |

same assay, conditions: first compound 2 µM

| Cell Line | relative viability |
| --- | --- |
| EKVX | 1.04 |
| LC-2-ad | 0.444 |
| NCI-H1975 | 1.21 |
| RERF-LC-KJ | 0.926 |
| PC-3 [JPC-3] | 0.775 |

same assay, conditions: first compound 6.325 µM

| Cell Line | relative viability |
| --- | --- |
| EKVX | 0.881 |
| LC-2-ad | 0.397 |
| NCI-H1944 | 0.982 |
| NCI-H1975 | 1.05 |
| RERF-LC-KJ | 0.72 |
| PC-3 [JPC-3] | 0.741 |

compound: Cc1cc([C@@H](C)Nc2ccccc2C(=O)O)c2nc(N3CCOCC3)cc(=O)n2c1 [AZD6482] + CC1(C)CCC(c2ccc(Cl)cc2)=C(CN2CCN(c3ccc(C(=O)NS(=O)(=O)c4ccc(N[C@H](CCN5CCOCC5)CSc5ccccc5)c(S(=O)(=O)C(F)(F)F)c4)cc3)CC2)C1 [Navitoclax] (partner 0.5 µM); assay: as above; settings: first compound 0.08 µM
Summary of the method: as §1

| Cell Line | relative viability |
| --- | --- |
| EKVX | 0.817 |
| LC-2-ad | 0.407 |
| NCI-H1944 | 1.02 |
| NCI-H1975 | 0.919 |
| RERF-LC-KJ | 0.584 |
| PC-3 [JPC-3] | 0.727 |

same assay, conditions: first compound 0.253 µM

| Cell Line | relative viability |
| --- | --- |
| EKVX | 0.868 |
| LC-2-ad | 0.312 |
| NCI-H1944 | 0.953 |
| NCI-H1975 | 1.05 |
| RERF-LC-KJ | 0.854 |
| PC-3 [JPC-3] | 0.665 |

same assay, conditions: first compound 0.8 µM

| Cell Line | relative viability |
| --- | --- |
| EKVX | 0.786 |
| LC-2-ad | 0.394 |
| NCI-H1944 | 1.03 |
| NCI-H1975 | 1.17 |
| RERF-LC-KJ | 0.802 |
| PC-3 [JPC-3] | 0.851 |

same assay, conditions: first compound 2.53 µM

| Cell Line | relative viability |
| --- | --- |
| EKVX | 0.535 |
| LC-2-ad | 0.234 |
| NCI-H1944 | 0.887 |
| NCI-H1975 | 0.856 |
| RERF-LC-KJ | 0.52 |
| PC-3 [JPC-3] | 0.756 |

same assay, conditions: first compound 8 µM

| Cell Line | relative viability |
| --- | --- |
| EKVX | 0.57 |
| LC-2-ad | 0.259 |
| NCI-H1944 | 0.821 |
| NCI-H1975 | 0.786 |
| RERF-LC-KJ | 0.874 |
| PC-3 [JPC-3] | 0.679 |

compound: Cc1cc([C@@H](C)Nc2ccccc2C(=O)O)c2nc(N3CCOCC3)cc(=O)n2c1 [AZD6482] + COc1cc2c(Oc3ccc(NC(=O)C4(C(=O)Nc5ccc(F)cc5)CC4)cc3F)ccnc2cc1OCCCN1CCOCC1 [Foretinib] (partner 0.25 µM); assay: as above; settings: first compound 0.08 µM
Summary of the method: as §1

| Cell Line | relative viability |
| --- | --- |
| EKVX | 0.746 |
| LC-2-ad | 0.902 |
| NCI-H1944 | 0.866 |
| NCI-H1975 | 0.889 |
| RERF-LC-KJ | 0.791 |
| PC-3 [JPC-3] | 0.928 |

same assay, conditions: first compound 0.253 µM

| Cell Line | relative viability |
| --- | --- |
| EKVX | 0.654 |
| LC-2-ad | 0.939 |
| NCI-H1944 | 0.892 |
| NCI-H1975 | 0.872 |
| RERF-LC-KJ | 0.825 |
| PC-3 [JPC-3] | 1.09 |

same assay, conditions: first compound 0.8 µM

| Cell Line | relative viability |
| --- | --- |
| EKVX | 0.921 |
| LC-2-ad | 0.878 |
| NCI-H1944 | 0.872 |
| NCI-H1975 | 0.951 |
| RERF-LC-KJ | 0.822 |
| PC-3 [JPC-3] | 1.09 |

same assay, conditions: first compound 2.53 µM

| Cell Line | relative viability |
| --- | --- |
| EKVX | 0.542 |
| LC-2-ad | 0.714 |
| NCI-H1944 | 0.686 |
| NCI-H1975 | 0.709 |
| RERF-LC-KJ | 0.781 |
| PC-3 [JPC-3] | 0.877 |

same assay, conditions: first compound 8 µM

| Cell Line | relative viability |
| --- | --- |
| EKVX | 0.614 |
| LC-2-ad | 0.787 |
| NCI-H1944 | 0.697 |
| NCI-H1975 | 0.558 |
| RERF-LC-KJ | 0.7 |
| PC-3 [JPC-3] | 0.875 |

compound: Cc1cc([C@@H](C)Nc2ccccc2C(=O)O)c2nc(N3CCOCC3)cc(=O)n2c1 [AZD6482] + Nc1nc2[nH]cc(CCc3ccc(C(=O)N[C@@H](CCC(=O)O)C(=O)O)cc3)c2c(=O)[nH]1 [Pemetrexed] (partner 0.2 µM); assay: as above; settings: first compound 0.08 µM
Summary of the method: as §1

| Cell Line | relative viability |
| --- | --- |
| EKVX | 0.368 |
| LC-2-ad | 0.279 |
| NCI-H1944 | 0.535 |
| NCI-H1975 | 0.257 |
| RERF-LC-KJ | 0.461 |
| PC-3 [JPC-3] | 1.07 |

same assay, conditions: first compound 0.253 µM

| Cell Line | relative viability |
| --- | --- |
| EKVX | 0.373 |
| LC-2-ad | 0.293 |
| NCI-H1944 | 0.575 |
| NCI-H1975 | 0.28 |
| RERF-LC-KJ | 0.459 |
| PC-3 [JPC-3] | 1.05 |

same assay, conditions: first compound 0.8 µM

| Cell Line | relative viability |
| --- | --- |
| EKVX | 0.317 |
| LC-2-ad | 0.274 |
| NCI-H1944 | 0.604 |
| NCI-H1975 | 0.31 |
| RERF-LC-KJ | 0.465 |
| PC-3 [JPC-3] | 1.04 |

same assay, conditions: first compound 2.53 µM

| Cell Line | relative viability |
| --- | --- |
| EKVX | 0.265 |
| LC-2-ad | 0.302 |
| NCI-H1944 | 0.427 |
| NCI-H1975 | 0.303 |
| RERF-LC-KJ | 0.439 |
| PC-3 [JPC-3] | 0.634 |

same assay, conditions: first compound 8 µM

| Cell Line | relative viability |
| --- | --- |
| EKVX | 0.348 |
| LC-2-ad | 0.292 |
| NCI-H1944 | 0.499 |
| NCI-H1975 | 0.308 |
| RERF-LC-KJ | 0.449 |
| PC-3 [JPC-3] | 0.533 |
